The assay has as its target T1, human OX2R (Homo sapiens, UniProt O43614).
T1 construct: expressed in transfected cells; host or cells: CHO (Chinese hamster ovary) cells grown under G418 selection
T1 sequence (O43614 1-444): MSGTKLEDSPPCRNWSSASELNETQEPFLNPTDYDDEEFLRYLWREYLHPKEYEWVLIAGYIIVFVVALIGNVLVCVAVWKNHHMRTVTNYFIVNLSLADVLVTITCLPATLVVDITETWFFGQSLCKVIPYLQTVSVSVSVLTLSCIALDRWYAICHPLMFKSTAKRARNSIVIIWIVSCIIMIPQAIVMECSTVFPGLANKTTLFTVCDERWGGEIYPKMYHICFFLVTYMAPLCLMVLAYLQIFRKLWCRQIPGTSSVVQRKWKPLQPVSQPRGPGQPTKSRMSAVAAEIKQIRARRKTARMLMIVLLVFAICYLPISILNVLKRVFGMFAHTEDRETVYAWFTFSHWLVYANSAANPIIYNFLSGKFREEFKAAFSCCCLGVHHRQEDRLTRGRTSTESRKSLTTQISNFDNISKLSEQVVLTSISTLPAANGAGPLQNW
The assay is described as follows: IPOne (IP-1 accumulation) assay in CHO cells expressing human OX2R. It is filed as cell-based. The conditions noted are these: for EC50: CHO cells expressing human OX2R, IP-One assay, 2 h incubation, four parameter logistic fit, read-out: OX2R Potency, EC50; for % of maximum agonist effect (relative to Orexin A): percent effect vs mean max effect of a reference compound at 1 uM (100% activity vs Orexin A), human OX2R. The text has this: The utility of the compounds in accordance with the present invention as orexin receptor OX1R and/or OX2R agonists may be readily determined without undue experimentation by methodology well known in the art. Both the OX1R and/or OX2R G-coupled protein receptors (GPCRs) couple through the Gαq signaling pathway, which ultimately promotes calcium mobilization via inositol triphosphate (IP3) production. […] The utility of the compounds in accordance with the present invention as orexin receptor OX1R and/or OX2R agonists may be determined utilizing this assay.
In a typical experiment, the OX1 and OX2 receptor agonist activity is determined in accordance with the following general experimental method. Chinese hamster ovary (CHO) cells expressing human OX1R and/or the human OX2R were grown in Iscove's modified DMEM containing glutaMAX™, 1% G418, 100 U/mL penicillin, 100 μg/mL streptomycin and 10% heat-inactivated qualified fetal bovine serum (FBS). […] During this incubation, IP-one detection reagents were prepared (38:1:1 lysis buffer:D2:AB-cryptate reagents).
For each compound, data were fit to a four parameter logistic fit (ActivityBase software) and the EC50 was reported as the inflection point of the resulting curve. […] The intrinsic orexin receptor agonist activity of a compound which may be used in the present invention may be determined by these assays.

As to `CCN(C(=O)NC(Cn1ccnn1)C(F)(F)F)[C@H](C)c1cccc(-c2cn3ccnc3c(OC)n2)c1` (stereo partly drawn) [Example 1-17, 1-ethyl-1-((R)-1-(3-(8-methoxyimidazo[1,2-a]pyrazin-6-yl)phenyl)ethyl)-3-(1,1,1-trifluoro-3-(1H-1,2,3-triazol-1-yl)propan-2-yl)urea], the EC50 (usually the concentration needed to bring the measured effect to its halfway point) turned out to be 10.5 nM and the “% of maximum agonist effect (relative to Orexin A)” value was 98.7%.

Turning to `CCN(C(=O)N[C@@H](C)C(F)(F)F)[C@@H](c1cc(-c2cn3ccnc3c(OC)n2)c(OC)cn1)C(F)(F)F` [Example 2-1, 1-ethyl-1-((S)-2,2,2-trifluoro-1-(5-methoxy-4-(8-methoxyimidazo[1,2-a]pyrazin-6-yl)pyridin-2-yl)ethyl)-3-((S)-1,1,1-trifluoropropan-2-yl)urea], the EC50 was found to be 6.8 nM and the “% of maximum agonist effect (relative to Orexin A)” value came to 100.1%.

Turning to `CCN(C(=O)NC(CC(C)C(F)(F)F)C(F)(F)F)[C@H](C)c1cccc(-c2cn3ccnc3c(OC)n2)c1` (stereo partly drawn) [Example 2-2, 1-ethyl-3-(1,1,1,5,5,5-hexafluoro-4-methylpentan-2-yl)-1-((R)-1-(3-(8-methoxyimidazo[1,2-a]pyrazin-6-yl)phenyl)ethyl)urea], the concentration for a half-maximal effect (EC50) amounted to 3.7 nM and the “% of maximum agonist effect (relative to Orexin A)” value is on record as 99.1%.

With `CCC(CC(C)C(F)(F)F)NC(=O)N(CC)[C@H](C)c1cccc(-c2cn3ccnc3c(OC)n2)c1` (stereo partly drawn) [Example 2-3, 1-ethyl-1-((R)-1-(3-(8-methoxyimidazo[1,2-a]pyrazin-6-yl)phenyl)ethyl)-3-(6,6,6-trifluoro-5-methylhexan-3-yl)urea], the EC50 came to 4.6 nM and the “% of maximum agonist effect (relative to Orexin A)” value is given as 100.6%.

Consider `CCN(C(=O)NC(C1CC(F)(F)CC(C)(C)O1)C(F)(F)F)[C@@H](c1cc(-c2cn3cc(C)nc3c(OC)n2)c(OC)cn1)C(F)(F)F` (stereo partly drawn) [Example 2-4, 3-(1-(4,4-difluoro-6,6-dimethyltetrahydro-2H-pyran-2-yl)-2,2,2-trifluoroethyl)-1-ethyl-1-((S)-2,2,2-trifluoro-1-(5-methoxy-4-(8-methoxy-2-methylimidazo[1,2-a]pyrazin-6-yl)pyridin-2-yl)ethyl)urea], for which the concentration giving a half-maximal response (EC50) was 4.3 nM and the “% of maximum agonist effect (relative to Orexin A)” value was 100.6%.

On to `CCN(C(=O)NC(C1CCC1)C(F)(F)F)[C@@H](c1cc(-c2cn3ccnc3c(OC)n2)c(OC)cn1)C(F)(F)F` (stereo partly drawn) [Example 2-5, 3-(1-cyclobutyl-2,2,2-trifluoroethyl)-1-ethyl-1-((S)-2,2,2-trifluoro-1-(5-methoxy-4-(8-methoxyimidazo[1,2-a]pyrazin-6-yl)pyridin-2-yl)ethyl)urea], for which the EC50 came to 10.7 nM and the “% of maximum agonist effect (relative to Orexin A)” value came to 100.7%.

Consider `CCN(C(=O)NC(C1CC1)C(F)(F)F)C(c1cc(-c2cn3ccnc3c(OC)n2)c(OC)cn1)C(F)(F)F` (stereo not drawn) [Example 2-6, 3-(1-cyclopropyl-2,2,2-trifluoroethyl)-1-ethyl-1-(2,2,2-trifluoro-1-(5-methoxy-4-(8-methoxyimidazo[1,2-a]pyrazin-6-yl)pyridin-2-yl)ethyl)urea], for which the EC50 is 12.1 nM and the “% of maximum agonist effect (relative to Orexin A)” value is listed as 101.5%.

Regarding `CCN(C(=O)NC(C(F)F)C1CC1)[C@@H](c1cc(-c2cn3ccnc3c(OC)n2)c(OC)cn1)C(F)(F)F` (stereo partly drawn) [Example 2-7, 3-(1-cyclopropyl-2,2-difluoroethyl)-1-ethyl-1-((S)-2,2,2-trifluoro-1-(5-methoxy-4-(8-methoxyimidazo[1,2-a]pyrazin-6-yl)pyridin-2-yl)ethyl)urea], the half-maximal effective concentration (EC50) came to 12.5 nM and the “% of maximum agonist effect (relative to Orexin A)” value turned out to be 100.1%.

Take `CC[C@H](NC(=O)N(CC)C(c1cc(-c2cn3ccnc3c(OC)n2)c(OC)cn1)C(F)(F)F)C(F)(F)F` (stereo partly drawn) [Example 2-8, 1-ethyl-1-(2,2,2-trifluoro-1-(5-methoxy-4-(8-methoxyimidazo[1,2-a]pyrazin-6-yl)pyridin-2-yl)ethyl)-3-((S)-1,1,1-trifluorobutan-2-yl)urea]: the EC50 came out at 13.3 nM and the “% of maximum agonist effect (relative to Orexin A)” value worked out at 100.0%.

For `CCN(C(=O)NC1CCC1C(F)(F)F)[C@@H](c1cc(-c2cn3ccnc3c(OC)n2)c(OC)cn1)C(F)(F)F` (stereo partly drawn) [Example 2-9, 1-ethyl-1-((S)-2,2,2-trifluoro-1-(5-methoxy-4-(8-methoxyimidazo[1,2-a]pyrazin-6-yl)pyridin-2-yl)ethyl)-3-(2-(trifluoromethyl)cyclobutyl)-urea], the concentration for a half-maximal effect (EC50) is 20.3 nM and the “% of maximum agonist effect (relative to Orexin A)” value was determined as 100.0%.

As for `CCC(NC(=O)N(CC)[C@@H](c1cc(-c2cn3ccnc3c(OC)n2)c(OC)cn1)C(F)(F)F)C(F)F` (stereo partly drawn) [Example 2-10, 3-(1,1-difluorobutan-2-yl)-1-ethyl-1-((S)-2,2,2-trifluoro-1-(5-methoxy-4-(8-methoxyimidazo[1,2-a]pyrazin-6-yl)pyridin-2-yl)ethyl)urea], the concentration giving a half-maximal response (EC50) stood at 22.5 nM and the “% of maximum agonist effect (relative to Orexin A)” value is listed as 98.5%.

In the case of `CCN(C(=O)NCC(C)C(F)(F)F)[C@@H](c1cc(-c2cn3ccnc3c(OC)n2)c(OC)cn1)C(F)(F)F` (stereo partly drawn) [Example 2-11, 1-ethyl-1-((S)-2,2,2-trifluoro-1-(5-methoxy-4-(8-methoxyimidazo[1,2-a]pyrazin-6-yl)pyridin-2-yl)ethyl)-3-(3,3,3-trifluoro-2-methylpropyl)urea], the 50% effective concentration (EC50) amounted to 30.3 nM and the “% of maximum agonist effect (relative to Orexin A)” value is 97.6%.

Turning to `CCN(C(=O)N[C@@H](CCC(F)(F)F)C(F)(F)F)C(c1cc(-c2cn3ccnc3c(OC)n2)c2occc2n1)C(F)(F)F` (stereo partly drawn) [Example 2-13, 1-ethyl-3-((S)-1,1,1,5,5,5-hexafluoropentan-2-yl)-1-(2,2,2-trifluoro-1-(7-(8-methoxyimidazo[1,2-a]pyrazin-6-yl)furo[3,2-b]pyridin-5-yl)ethyl)urea], the EC50 was determined as 2.1 nM and the “% of maximum agonist effect (relative to Orexin A)” value was found to be 99.9%.

`CCN(C(=O)N[C@@H](CCC(F)(F)F)C(F)(F)F)C(c1cc(-c2cn3ccnc3c(OC)n2)c2nccn2c1)C(F)(F)F` (stereo partly drawn) [Example 2-14, 1-ethyl-3-((S)-1,1,1,5,5,5-hexafluoropentan-2-yl)-1-(2,2,2-trifluoro-1-(8-(8-methoxyimidazo[1,2-a]pyrazin-6-yl)imidazo[1,2-a]pyridin-6-yl)ethyl)urea]: the EC50 came out at 8.7 nM and the “% of maximum agonist effect (relative to Orexin A)” value worked out at 100.1%.

As for `CCN(C(=O)N[C@@H](CCC(F)(F)F)C(F)(F)F)C(c1cnc(SC)c(-c2cc(OC)n3nccc3c2)c1)C(F)(F)F` (stereo partly drawn) [Example 2-15, 1-ethyl-3-((S)-1,1,1,5,5,5-hexafluoropentan-2-yl)-1-(2,2,2-trifluoro-1-(5-(7-methoxypyrazolo[1,5-a]pyridin-5-yl)-6-(methylthio)pyridin-3-yl)ethyl)urea], the EC50 amounted to 24 nM and the “% of maximum agonist effect (relative to Orexin A)” value amounted to 98.4%.

Turning to `CCN(C(=O)N[C@@H](CCC(F)(F)F)C(F)(F)F)C(c1cc(-c2cn3cc(C)nc3c(OC)n2)c(OC)cn1)C1CC1` (stereo partly drawn) [Example 2-16, 1-(cyclopropyl(5-methoxy-4-(8-methoxy-2-methylimidazo[1,2-a]pyrazin-6-yl)pyridin-2-yl)methyl)-1-ethyl-3-((S)-1,1,1,5,5,5-hexafluoropentan-2-yl)urea], the half-maximal effective concentration (EC50) is 54.5 nM and the “% of maximum agonist effect (relative to Orexin A)” value is 101.1%.

`CCN(C(=O)N[C@@H](CCC(F)(F)F)C(F)(F)F)C(c1cc(-c2cn3cc(C)nc3c(OC)n2)c(OC)cn1)C(F)F` (stereo partly drawn) [Example 2-17, 1-(2,2-difluoro-1-(5-methoxy-4-(8-methoxy-2-methylimidazo[1,2-a]pyrazin-6-yl)pyridin-2-yl)ethyl)-1-ethyl-3-((S)-1,1,1,5,5,5-hexafluoropentan-2-yl)urea]: the EC50 came to 3.2 nM and the “% of maximum agonist effect (relative to Orexin A)” value stood at 101.7%.

Take `CCN(C(=O)N[C@@H](COC1CC1)C(F)(F)F)[C@@H](c1cc(-c2cn3cc(C)nc3c(OC)n2)c(OC)cn1)C(F)(F)F` [Example 2-18, 3-((S)-3-cyclopropoxy-1,1,1-trifluoropropan-2-yl)-1-ethyl-1-((S)-2,2,2-trifluoro-1-(5-methoxy-4-(8-methoxy-2-methylimidazo[1,2-a]pyrazin-6-yl)pyridin-2-yl)ethyl)urea]: the concentration giving a half-maximal response (EC50) amounted to 29.9 nM and the “% of maximum agonist effect (relative to Orexin A)” value was determined as 99.6%.

The record behind these values is patent US12692262B2, “Substituted ureas as orexin receptor agonists” (Merck Sharp & Dohme LLC, priority 2020, dated 2026).
